Consider 16 molecules from PubChem BioAssay (NCI).

Among the test systems are NCI-H23 lung; SN12C renal; UO-31 renal; UACC-257 melanoma; HL-60(TB) leukemia; UACC-62 melanoma; SNB-19 CNS; NCI-H460 lung; HCT-15 colon; BT-549 breast.
Common to all, as to assay: inhibition of tumour cell growth, NCI panel, 48 h

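Exposure lasted 48 hours, with cells grown in 96-well plates and compounds tested at five concentrations. GI50 marks 50% less growth. TGI denotes the concentration required for complete inhibition of growth.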 A value given as a limit tells only on which side of the number the result lay.

On to `COc1cc2c(cc1OC)C1(c3ccc(Cl)cc3)ON=C(c3ccccc3)N1CS2` (stereo unspecified), for which the TGI in the assay with NCI-H23 lung, in the assay on SN12C renal, in the assay with UO-31 renal, in the assay with UACC-257 melanoma, in the assay on HL-60(TB) leukemia and with UACC-62 melanoma was over 100 µM each time. In addition, the TGI in the assay on SNB-19 CNS, with NCI-H460 lung and in the assay with HCT-15 colon was over 100 µM throughout.

In the case of `CC(C)(C)c1cc(C2COC(c3cc(C(C)(C)C)c(O)c(C(C)(C)C)c3)CO2)cc(C(C)(C)C)c1O` (stereo unspecified), the TGI with NCI-H23 lung, in the assay on SN12C renal, in the assay with UO-31 renal, in the assay on UACC-257 melanoma, in the assay with UACC-62 melanoma and in the assay on BT-549 breast was over 100 µM each time. Moreover, the TGI in the assay on SNB-19 CNS and with HCT-15 colon was over 100 µM throughout.

In the case of `O=C1C[C@@H](c2ccccc2)O[C@@H](c2ccccc2)C1`, the TGI in the assay on NCI-H23 lung, with SN12C renal, in the assay with UO-31 renal, in the assay on UACC-257 melanoma, in the assay with UACC-62 melanoma and in the assay with BT-549 breast was over 100 µM throughout. Also, the TGI with SNB-19 CNS, in the assay on NCI-H460 lung and in the assay on HCT-15 colon was over 100 µM in each case.

On to `c1ccc2c3c([nH]c2c1)C1CCCN1CC3` (stereo unspecified), for which the TGI in the assay with NCI-H23 lung, with SN12C renal, in the assay with UO-31 renal, in the assay with UACC-257 melanoma, with HL-60(TB) leukemia and in the assay on SNB-19 CNS was over 10 µM throughout. The TGI in the assay with NCI-H460 lung and with HCT-15 colon was over 10 µM throughout.

For `COC(=O)CC1NC(=O)C1C1(C)OCCO1` (stereo unspecified), the TGI with NCI-H23 lung, in the assay with SN12C renal, in the assay with UO-31 renal, in the assay with UACC-257 melanoma, with HL-60(TB) leukemia and in the assay on UACC-62 melanoma was over 100 µM each time. The TGI with SNB-19 CNS, with NCI-H460 lung and in the assay on HCT-15 colon was over 100 µM each time.

For the molecule `CC(C)=C/C=C1/CS(=O)(=O)C=C1C`, the TGI in the assay on NCI-H23 lung, with SN12C renal, with UO-31 renal, in the assay with UACC-257 melanoma, in the assay on HL-60(TB) leukemia and in the assay on UACC-62 melanoma was over 100 µM each time. Moreover, the TGI with SNB-19 CNS and in the assay with HCT-15 colon was over 100 µM each time.

With `COc1cc(-c2cc(-c3cc([N+](=O)[O-])c(/C=N/NC(=O)c4ccncc4)o3)ccc2OC)ccc1C`, the TGI in the assay with NCI-H23 lung, with SN12C renal, in the assay on UACC-257 melanoma, in the assay with UACC-62 melanoma and in the assay on SNB-19 CNS was over 100 µM throughout.

Regarding `COc1cccc(N2C(=O)C3c4[nH]c5ccc(C)cc5c4C4CCC(C(C)(C)C)CC4C3C2=O)c1` (stereo unspecified), the TGI in the assay on NCI-H23 lung was 5.74 µM; in the assay on SN12C renal, over 10 µM; in the assay with UO-31 renal, over 10 µM; in the assay with HL-60(TB) leukemia it was 4.21 µM; in the assay on UACC-62 melanoma, over 10 µM; with SNB-19 CNS, over 10 µM. Also, the TGI with NCI-H460 lung was 4.43 µM; in the assay with HCT-15 colon, over 10 µM.

In the case of `Brc1ccc(-c2cn3ccncc3n2)cc1`, the TGI is over 100 µM in the assay on NCI-H23 lung; over 100 µM with SN12C renal; over 100 µM in the assay on UO-31 renal; 85.6 µM in the assay with UACC-257 melanoma; over 100 µM in the assay on UACC-62 melanoma; over 100 µM in the assay on BT-549 breast. In addition, the TGI in the assay on SNB-19 CNS, in the assay on NCI-H460 lung and with HCT-15 colon was over 100 µM in each case.

Consider `CCN(CC)CCNCc1cc(Cl)cc2c1OCOC2`, for which the TGI with NCI-H23 lung, in the assay with SN12C renal, in the assay on UO-31 renal, in the assay on HL-60(TB) leukemia, with UACC-62 melanoma and with SNB-19 CNS was over 10 µM in each case. In addition, the TGI in the assay with NCI-H460 lung and in the assay on HCT-15 colon was over 10 µM in each case.

`CC(C)(CC(O)C#N)/[N+]([O-])=[N+](\[O-])C(C)(C)CC(O)C#N` (stereo unspecified): the TGI in the assay with NCI-H23 lung is 66.8 µM; with SN12C renal, 45.3 µM; in the assay with UO-31 renal it was 98.1 µM; in the assay with UACC-257 melanoma, 58.1 µM; in the assay with UACC-62 melanoma it was 37.2 µM; in the assay with BT-549 breast, 78.8 µM. For the same molecule, the results for the TGI in the assay on SNB-19 CNS, in the assay with NCI-H460 lung and in the assay on HCT-15 colon were over 100 µM, over 100 µM and 38.5 µM, respectively.

As to `O=C(N/N=C/c1cc(Cl)cc(Cl)c1O)c1ccccc1O`, the GI50 in the assay with NCI-H23 lung was 2.69 µM. Also, the TGI stood at 23.3 µM in the assay with SN12C renal; 29.5 µM in the assay on UO-31 renal; 14.6 µM in the assay on UACC-257 melanoma; 3.89 µM with UACC-62 melanoma; 43.7 µM in the assay with SNB-19 CNS; 18.8 µM with NCI-H460 lung. Besides, in the assay with HCT-15 colon, the TGI came out at 15.7 µM.

For the molecule `Cc1ccc(N=Nc2c(O)c(C(=O)Nc3ccccc3)cc3ccccc23)c([N+](=O)[O-])c1`, the TGI in the assay with NCI-H23 lung, in the assay on SN12C renal, in the assay on UO-31 renal, in the assay with UACC-257 melanoma, in the assay with UACC-62 melanoma and with BT-549 breast was over 100 µM each time. Also, the TGI in the assay on SNB-19 CNS and with HCT-15 colon was over 100 µM in each case.

`Cc1n[nH]c(=O)n1/N=C/c1ccc([N+](=O)[O-])o1`: the TGI in the assay on NCI-H23 lung was 32.4 µM; with SN12C renal, 14.4 µM; in the assay with UO-31 renal, 30.2 µM; with UACC-257 melanoma, 27.7 µM; in the assay with UACC-62 melanoma, 33.6 µM; in the assay on BT-549 breast it was 36.6 µM. The TGI with SNB-19 CNS was over 100 µM; in the assay on NCI-H460 lung it was 49.4 µM; in the assay on HCT-15 colon, 26.2 µM.

As to `COC12c3ccccc3-c3ccccc3C1[C@H]1C(=O)OC(=O)[C@H]12` (stereo partly specified), the TGI with NCI-H23 lung, in the assay with SN12C renal, in the assay with UO-31 renal, with UACC-257 melanoma, in the assay with HL-60(TB) leukemia and in the assay on SNB-19 CNS was over 10 µM throughout. Moreover, the TGI in the assay with NCI-H460 lung and in the assay on HCT-15 colon was over 10 µM throughout.

`CCOc1ccc(-n2nnc3c(N)nc(N)nc32)cc1`: the TGI in the assay with NCI-H23 lung, in the assay on SN12C renal, in the assay on UACC-257 melanoma, with UACC-62 melanoma, in the assay on BT-549 breast and in the assay with SNB-19 CNS was over 100 µM each time. The TGI with NCI-H460 lung and in the assay with HCT-15 colon was over 100 µM throughout.
